Key:
[1] = target: Serine/threonine-protein kinase Nek6 (Homo sapiens) (UniProt Q9HC98); conditions: Compound concentration 100.0 nM
[2] = target: 3-phosphoinositide-dependent protein kinase 1 (Homo sapiens) (UniProt O15530); conditions: Compound concentration 100.0 nM
[3] = target: 5'-AMP-activated protein kinase catalytic subunit alpha-1 (Homo sapiens) (UniProt Q13131); conditions: Compound concentration 100.0 nM
[4] = target: Muscarinic acetylcholine receptor M1 (Homo sapiens) (UniProt P11229); conditions: Compound concentration 10.0 uM
[5] = target: Cyclin-dependent kinase-like 3 (Homo sapiens) (UniProt Q8IVW4); conditions: Compound concentration 100.0 nM
[6] = target: Receptor tyrosine-protein kinase erbB-2 (Homo sapiens) (UniProt P04626); conditions: Compound concentration 100.0 nM
[7] = target: Ephrin type-B receptor 4 (Homo sapiens) (UniProt P54760); conditions: Compound concentration 100.0 nM
[8] = target: Dual serine/threonine and tyrosine protein kinase (Homo sapiens) (UniProt Q6XUX3); conditions: Compound concentration 100.0 nM
[9] = target: Tyrosine-protein kinase Yes (Homo sapiens) (UniProt P07947); conditions: Compound concentration 100.0 nM
[10] = target: Ephrin type-B receptor 6 (Homo sapiens) (UniProt O15197); conditions: Compound concentration 100.0 nM
[11] = target: Serine/threonine-protein kinase TAO2 (Homo sapiens) (UniProt Q9UL54); conditions: Compound concentration 100.0 nM
[12] = target: Testis-specific serine/threonine-protein kinase 3 (Homo sapiens) (UniProt Q96PN8); conditions: Compound concentration 100.0 nM
[13] = target: Serine/threonine-protein kinase 33 (Homo sapiens) (UniProt Q9BYT3); conditions: Compound concentration 100.0 nM
[14] = target: Protein-tyrosine kinase 2-beta (Homo sapiens) (UniProt Q14289); conditions: Compound concentration 100.0 nM
[15] = target: Protein-tyrosine kinase 6 (Homo sapiens) (UniProt Q13882); conditions: Compound concentration 100.0 nM
[16] = target: Serine/threonine-protein kinase 35 (Homo sapiens) (UniProt Q8TDR2); conditions: Compound concentration 100.0 nM
[17] = target: Mitogen-activated protein kinase 9 (Homo sapiens) (UniProt P45984); conditions: Compound concentration 100.0 nM
[18] = target: Serine/threonine-protein kinase Nek9 (Homo sapiens) (UniProt Q8TD19); conditions: Compound concentration 100.0 nM
[19] = target: BMP-2-inducible protein kinase (Homo sapiens) (UniProt Q9NSY1); conditions: Compound concentration 100.0 nM
[20] = target: Myosin light chain kinase family member 4 (Homo sapiens) (UniProt Q86YV6); conditions: Compound concentration 100.0 nM
[21] = target: Dual specificity mitogen-activated protein kinase kinase 2 (Homo sapiens) (UniProt P36507); conditions: Compound concentration 100.0 nM
[22] = target: Serine/threonine-protein kinase Chk2 (Homo sapiens) (UniProt O96017); conditions: Compound concentration 100.0 nM
[23] = target: Cyclin-G-associated kinase (Homo sapiens) (UniProt O14976); conditions: Compound concentration 100.0 nM
[24] = target: Myotonin-protein kinase (Homo sapiens) (UniProt Q09013); conditions: Compound concentration 100.0 nM
[25] = system: Epidermal growth factor receptor (Homo sapiens), P00533 [L858R]; conditions: Compound concentration 100.0 nM
[26] = target: Ribosomal protein S6 kinase alpha-1 (Homo sapiens) (UniProt Q15418); conditions: Compound concentration 100.0 nM
[27] = target: Serine/threonine-protein kinase VRK2 (Homo sapiens) (UniProt Q86Y07); conditions: Compound concentration 100.0 nM
[28] = target: Myosin-IIIa (Homo sapiens) (UniProt Q8NEV4); conditions: Compound concentration 100.0 nM
[29] = target: Misshapen-like kinase 1 (Homo sapiens) (UniProt Q8N4C8); conditions: Compound concentration 100.0 nM
[30] = target: Serine/threonine-protein kinase Nek1 (Homo sapiens) (UniProt Q96PY6); conditions: Compound concentration 100.0 nM
[31] = system: eIF-2-alpha kinase GCN2 (Homo sapiens), Q9P2K8 [S808G]; conditions: Compound concentration 100.0 nM
[32] = target: Ephrin type-A receptor 6 (Homo sapiens) (UniProt Q9UF33); conditions: Compound concentration 100.0 nM
[33] = system: Tyrosine-protein kinase ABL1 (Homo sapiens), P00519 [M351T]; conditions: Compound concentration 100.0 nM
[34] = target: Serine/threonine-protein kinase PLK2 (Homo sapiens) (UniProt Q9NYY3); conditions: Compound concentration 100.0 nM
[35] = system: Tyrosine-protein kinase ABL1 (Homo sapiens), P00519 [Q252H]; conditions: Compound concentration 100.0 nM
[36] = target: MAP/microtubule affinity-regulating kinase 4 (Homo sapiens) (UniProt Q96L34); conditions: Compound concentration 100.0 nM
[37] = target: Alpha-1D adrenergic receptor (Homo sapiens) (UniProt P25100); conditions: Compound concentration 10.0 uM
[38] = target: Bone morphogenetic protein receptor type-1A (Homo sapiens) (UniProt P36894); conditions: Compound concentration 100.0 nM
[39] = target: D(2) dopamine receptor (Homo sapiens) (UniProt P14416); conditions: Compound concentration 10.0 uM
[40] = target: 5-hydroxytryptamine receptor 1B (Homo sapiens) (UniProt P28222); conditions: Compound concentration 10.0 uM
[41] = system: Tyrosine-protein kinase ABL1 (Homo sapiens), P00519 [H396P]; conditions: Compound concentration 100.0 nM
[42] = system: Phosphatidylinositol 4,5-bisphosphate 3-kinase catalytic subunit alpha isoform (Homo sapiens), P42336 [I800L]; conditions: Compound concentration 100.0 nM
[43] = target: Tyrosine-protein kinase Lyn (Homo sapiens) (UniProt P07948); conditions: Compound concentration 100.0 nM
[44] = target: cAMP-dependent protein kinase catalytic subunit beta (Homo sapiens) (UniProt P22694); conditions: Compound concentration 100.0 nM
[45] = target: Mitogen-activated protein kinase kinase kinase 2 (Homo sapiens) (UniProt Q9Y2U5); conditions: Compound concentration 100.0 nM
[46] = target: Mitogen-activated protein kinase kinase kinase 13 (Homo sapiens) (UniProt O43283); conditions: Compound concentration 100.0 nM

Serine/threonine-protein kinase Nek9 (Homo sapiens), sequence (Q8TD19 whole entry): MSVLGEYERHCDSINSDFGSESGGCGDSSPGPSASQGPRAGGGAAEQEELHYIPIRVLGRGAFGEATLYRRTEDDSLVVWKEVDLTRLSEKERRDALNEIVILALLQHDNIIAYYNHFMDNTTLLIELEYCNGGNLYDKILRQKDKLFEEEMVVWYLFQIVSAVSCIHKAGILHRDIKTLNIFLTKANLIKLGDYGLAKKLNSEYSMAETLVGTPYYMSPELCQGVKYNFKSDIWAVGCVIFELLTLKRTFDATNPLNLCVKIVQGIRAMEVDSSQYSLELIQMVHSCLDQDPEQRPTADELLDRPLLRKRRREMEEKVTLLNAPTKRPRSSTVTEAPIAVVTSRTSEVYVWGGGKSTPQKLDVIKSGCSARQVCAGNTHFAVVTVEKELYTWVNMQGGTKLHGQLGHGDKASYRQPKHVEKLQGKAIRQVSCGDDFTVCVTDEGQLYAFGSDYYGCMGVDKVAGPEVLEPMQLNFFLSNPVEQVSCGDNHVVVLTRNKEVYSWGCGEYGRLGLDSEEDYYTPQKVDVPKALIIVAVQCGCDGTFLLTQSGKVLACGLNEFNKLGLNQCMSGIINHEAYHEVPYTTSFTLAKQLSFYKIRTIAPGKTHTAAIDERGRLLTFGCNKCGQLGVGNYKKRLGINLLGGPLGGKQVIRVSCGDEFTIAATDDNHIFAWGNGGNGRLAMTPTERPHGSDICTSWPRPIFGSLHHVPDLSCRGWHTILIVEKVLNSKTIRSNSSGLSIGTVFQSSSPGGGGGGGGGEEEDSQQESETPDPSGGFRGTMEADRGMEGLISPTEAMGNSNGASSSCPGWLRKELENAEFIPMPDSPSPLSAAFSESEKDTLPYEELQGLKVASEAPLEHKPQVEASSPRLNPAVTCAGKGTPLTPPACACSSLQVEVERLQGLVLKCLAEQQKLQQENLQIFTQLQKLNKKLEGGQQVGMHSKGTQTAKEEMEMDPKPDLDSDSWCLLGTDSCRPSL
Protein-tyrosine kinase 6 (Homo sapiens), sequence (Q13882 whole entry, looked up): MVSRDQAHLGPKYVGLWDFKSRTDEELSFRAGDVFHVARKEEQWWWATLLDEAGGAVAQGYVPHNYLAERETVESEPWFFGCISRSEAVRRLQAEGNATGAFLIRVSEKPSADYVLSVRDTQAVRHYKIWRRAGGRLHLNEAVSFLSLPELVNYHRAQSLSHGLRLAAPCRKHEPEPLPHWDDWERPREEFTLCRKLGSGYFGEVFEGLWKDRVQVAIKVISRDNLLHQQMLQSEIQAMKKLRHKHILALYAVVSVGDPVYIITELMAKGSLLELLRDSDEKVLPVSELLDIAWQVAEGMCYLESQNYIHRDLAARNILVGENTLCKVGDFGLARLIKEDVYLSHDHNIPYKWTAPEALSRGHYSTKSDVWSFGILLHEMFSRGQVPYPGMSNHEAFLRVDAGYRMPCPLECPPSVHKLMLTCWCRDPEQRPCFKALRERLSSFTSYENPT
Testis-specific serine/threonine-protein kinase 3 (Homo sapiens), sequence (Q96PN8 whole entry): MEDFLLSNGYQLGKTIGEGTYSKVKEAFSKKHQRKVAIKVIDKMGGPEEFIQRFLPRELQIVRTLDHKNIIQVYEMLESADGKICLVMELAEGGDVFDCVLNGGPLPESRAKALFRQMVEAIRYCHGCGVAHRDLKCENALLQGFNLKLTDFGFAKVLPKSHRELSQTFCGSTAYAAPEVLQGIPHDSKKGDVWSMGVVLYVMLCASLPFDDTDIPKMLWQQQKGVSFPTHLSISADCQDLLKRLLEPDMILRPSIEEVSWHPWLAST
Serine/threonine-protein kinase VRK2 (Homo sapiens), sequence (Q86Y07 whole entry): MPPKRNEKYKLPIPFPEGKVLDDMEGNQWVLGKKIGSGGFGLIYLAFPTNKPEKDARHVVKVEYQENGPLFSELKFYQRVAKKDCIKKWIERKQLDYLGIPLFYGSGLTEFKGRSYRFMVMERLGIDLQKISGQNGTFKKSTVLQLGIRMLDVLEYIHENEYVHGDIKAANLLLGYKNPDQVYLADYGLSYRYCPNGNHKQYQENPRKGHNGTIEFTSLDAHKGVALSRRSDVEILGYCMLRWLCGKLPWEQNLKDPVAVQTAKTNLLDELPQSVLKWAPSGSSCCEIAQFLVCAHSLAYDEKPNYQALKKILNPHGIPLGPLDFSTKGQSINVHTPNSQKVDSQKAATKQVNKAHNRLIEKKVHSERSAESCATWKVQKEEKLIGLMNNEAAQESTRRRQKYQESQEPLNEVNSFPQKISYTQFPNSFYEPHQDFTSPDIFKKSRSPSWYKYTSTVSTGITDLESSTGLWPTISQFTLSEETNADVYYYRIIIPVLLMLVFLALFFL
3-phosphoinositide-dependent protein kinase 1 (Homo sapiens), sequence (O15530 whole entry): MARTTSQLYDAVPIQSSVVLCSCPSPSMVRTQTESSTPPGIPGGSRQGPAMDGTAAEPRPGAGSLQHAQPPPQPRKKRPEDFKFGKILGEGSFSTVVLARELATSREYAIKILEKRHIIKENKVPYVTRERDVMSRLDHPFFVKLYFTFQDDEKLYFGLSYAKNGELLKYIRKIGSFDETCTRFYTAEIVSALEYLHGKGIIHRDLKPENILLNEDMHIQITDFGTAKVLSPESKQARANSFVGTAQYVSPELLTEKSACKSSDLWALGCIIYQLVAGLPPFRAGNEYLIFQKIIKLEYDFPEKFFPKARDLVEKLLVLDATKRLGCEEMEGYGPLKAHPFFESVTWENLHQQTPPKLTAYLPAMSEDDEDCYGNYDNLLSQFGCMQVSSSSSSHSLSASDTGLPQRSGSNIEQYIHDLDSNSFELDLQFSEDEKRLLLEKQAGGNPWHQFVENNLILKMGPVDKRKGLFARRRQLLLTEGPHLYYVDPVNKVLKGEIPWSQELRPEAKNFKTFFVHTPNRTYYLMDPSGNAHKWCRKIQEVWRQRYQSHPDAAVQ
5'-AMP-activated protein kinase catalytic subunit alpha-1 (Homo sapiens), sequence (Q13131 whole entry, looked up): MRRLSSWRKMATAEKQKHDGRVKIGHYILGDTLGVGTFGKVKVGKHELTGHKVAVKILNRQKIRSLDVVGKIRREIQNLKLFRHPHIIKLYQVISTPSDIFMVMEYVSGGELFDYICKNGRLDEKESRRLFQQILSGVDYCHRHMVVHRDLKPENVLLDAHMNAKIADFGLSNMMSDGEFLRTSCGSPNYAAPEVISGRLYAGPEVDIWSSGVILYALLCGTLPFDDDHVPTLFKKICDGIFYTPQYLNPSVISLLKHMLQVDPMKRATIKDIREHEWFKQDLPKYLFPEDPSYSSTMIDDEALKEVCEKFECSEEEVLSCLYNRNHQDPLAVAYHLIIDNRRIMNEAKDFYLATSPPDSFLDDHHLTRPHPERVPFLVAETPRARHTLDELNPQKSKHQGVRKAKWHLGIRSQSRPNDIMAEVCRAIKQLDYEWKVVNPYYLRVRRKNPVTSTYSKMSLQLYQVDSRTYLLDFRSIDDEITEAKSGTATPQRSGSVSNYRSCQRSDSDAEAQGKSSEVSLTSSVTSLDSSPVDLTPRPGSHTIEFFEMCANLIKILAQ
Serine/threonine-protein kinase 35 (Homo sapiens), sequence (Q8TDR2 whole entry): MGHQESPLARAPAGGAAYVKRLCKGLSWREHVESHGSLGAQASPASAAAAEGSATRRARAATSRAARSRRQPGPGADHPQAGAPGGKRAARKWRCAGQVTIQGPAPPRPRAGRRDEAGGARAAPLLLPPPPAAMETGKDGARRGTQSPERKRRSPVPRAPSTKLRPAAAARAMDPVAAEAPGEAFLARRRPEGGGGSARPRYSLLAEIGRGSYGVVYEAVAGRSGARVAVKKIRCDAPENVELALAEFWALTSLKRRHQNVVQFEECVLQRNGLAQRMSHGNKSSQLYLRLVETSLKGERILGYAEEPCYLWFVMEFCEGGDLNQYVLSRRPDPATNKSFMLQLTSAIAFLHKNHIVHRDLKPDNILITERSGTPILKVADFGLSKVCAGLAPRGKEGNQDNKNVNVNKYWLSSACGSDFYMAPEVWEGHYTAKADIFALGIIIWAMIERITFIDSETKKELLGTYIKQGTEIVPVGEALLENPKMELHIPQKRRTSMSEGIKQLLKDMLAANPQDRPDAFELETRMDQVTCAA
Mitogen-activated protein kinase 9 (Homo sapiens), sequence (P45984 whole entry, looked up): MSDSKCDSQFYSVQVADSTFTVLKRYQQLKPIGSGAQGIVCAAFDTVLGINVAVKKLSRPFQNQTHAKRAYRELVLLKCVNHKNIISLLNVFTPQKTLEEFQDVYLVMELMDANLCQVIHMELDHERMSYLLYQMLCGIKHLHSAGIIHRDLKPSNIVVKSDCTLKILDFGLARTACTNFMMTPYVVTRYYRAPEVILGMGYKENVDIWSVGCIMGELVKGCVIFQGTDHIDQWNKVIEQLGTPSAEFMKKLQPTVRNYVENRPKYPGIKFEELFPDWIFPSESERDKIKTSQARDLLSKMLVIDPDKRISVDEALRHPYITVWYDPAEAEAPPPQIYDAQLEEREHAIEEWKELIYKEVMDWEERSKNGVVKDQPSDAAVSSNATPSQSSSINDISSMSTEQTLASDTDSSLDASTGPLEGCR
Myosin light chain kinase family member 4 (Homo sapiens), sequence (Q86YV6 whole entry): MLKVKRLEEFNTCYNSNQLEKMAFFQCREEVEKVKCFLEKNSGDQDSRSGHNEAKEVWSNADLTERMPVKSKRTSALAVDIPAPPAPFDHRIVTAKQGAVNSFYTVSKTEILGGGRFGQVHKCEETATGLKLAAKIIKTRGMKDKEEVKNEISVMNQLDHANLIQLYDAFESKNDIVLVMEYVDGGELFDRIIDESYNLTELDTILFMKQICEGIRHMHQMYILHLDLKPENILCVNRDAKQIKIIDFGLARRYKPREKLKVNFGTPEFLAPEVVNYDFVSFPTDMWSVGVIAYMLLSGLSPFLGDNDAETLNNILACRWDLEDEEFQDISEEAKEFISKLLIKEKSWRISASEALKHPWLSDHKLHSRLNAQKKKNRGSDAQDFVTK
Serine/threonine-protein kinase Nek6 (Homo sapiens), sequence (Q9HC98 whole entry): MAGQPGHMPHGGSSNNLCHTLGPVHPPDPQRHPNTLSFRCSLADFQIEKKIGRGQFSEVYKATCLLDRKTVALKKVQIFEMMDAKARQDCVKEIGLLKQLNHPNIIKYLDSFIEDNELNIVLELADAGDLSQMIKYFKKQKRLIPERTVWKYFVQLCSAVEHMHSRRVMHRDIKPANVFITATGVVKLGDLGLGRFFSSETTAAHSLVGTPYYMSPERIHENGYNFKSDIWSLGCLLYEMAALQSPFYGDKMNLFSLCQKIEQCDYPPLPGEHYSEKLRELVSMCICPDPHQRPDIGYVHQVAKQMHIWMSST

O=C(NCCCC1CCCCC1)c1ccc(CNC(=O)c2cnn(-c3ccccc3)c2C(F)(F)F)cc1 [SR-321]
inactive: residual activity [1] 83% | residual activity [2] 100% | residual activity [3] 100% | inhibition [4] 11.8% | residual activity [5] 100% | residual activity [6] 100% | residual activity [7] 95% | residual activity [8] 100% | residual activity [9] 100% | residual activity [10] 100% | residual activity [11] 89% | residual activity [12] 100% | residual activity [13] 87% | residual activity [14] 93% | residual activity [15] 97% | residual activity [16] 100% | residual activity [17] 85% | residual activity [18] 100% | residual activity [19] 100% | residual activity [20] 100% | residual activity [21] 93% | residual activity [22] 100% | residual activity [23] 100% | residual activity [24] 83% | residual activity [25] 100% | residual activity [26] 100% | residual activity [27] 100% | residual activity [28] 98% | residual activity [29] 97% | residual activity [30] 58% | residual activity [31] 100% | residual activity [32] 88% | residual activity [33] 100% | residual activity [34] 100% | residual activity [35] 100% | residual activity [36] 98% | inhibition [37] 10.1% | residual activity [38] 100% | inhibition [39] 15.8% | inhibition [40] 9.89% | residual activity [41] 99% | residual activity [42] 70% | residual activity [43] 100% | residual activity [44] 100% | residual activity [45] 100% | residual activity [46] 100%

Nc1c(C(=O)NCc2ccc(C(=O)NCCCC3CCCCC3)cc2)cnn1-c1ccccc1 [SR-318]
inactive: residual activity [1] 100% | residual activity [2] 100% | residual activity [3] 100% | inhibition [4] 31.1% | residual activity [5] 97% | residual activity [6] 100% | residual activity [7] 100% | residual activity [8] 100% | residual activity [9] 100% | residual activity [10] 100% | residual activity [11] 100% | residual activity [12] 100% | residual activity [13] 96% | residual activity [14] 99% | residual activity [15] 96% | residual activity [16] 100% | residual activity [17] 100% | residual activity [18] 100% | residual activity [19] 100% | residual activity [20] 100% | residual activity [21] 100% | residual activity [22] 88% | residual activity [23] 100% | residual activity [24] 77% | residual activity [25] 100% | residual activity [26] 100% | residual activity [27] 92% | residual activity [28] 100% | residual activity [29] 100% | residual activity [30] 84% | residual activity [31] 100% | residual activity [32] 94% | residual activity [33] 86% | residual activity [34] 100% | residual activity [35] 87% | residual activity [36] 76% | inhibition [37] 22% | residual activity [38] 100% | inhibition [39] 15% | inhibition [40] 10.4% | residual activity [41] 100% | residual activity [42] 96% | residual activity [43] 100% | residual activity [44] 82% | residual activity [45] 100% | residual activity [46] 100%

From ChEMBL document CHEMBL4507315 (2021)
